The target of this experiment is human μ-opiate receptor (Homo sapiens, UniProt P35372). Kind of experiment: Affinity for the human μ-opiate receptor ([3H]-naloxone displacement, SPA, CHO-K1 membrane preparation). The format is binding. To be noted: for inhibition at 1 µM: read-out: μ-Opioid receptor, % inhibition [1 μM]; for Ki: read-out: μ-Opioid receptor, Ki.

Like-named read-outs stand apart in the source and are kept apart here.

What is called inhibition is the change of the read-out against control, counted positive when it falls. One may read the Ki as a dissociation constant, usually derived from enzyme kinetics or from competition with a known ligand.

human μ-opiate receptor, sequence (P35372 whole entry): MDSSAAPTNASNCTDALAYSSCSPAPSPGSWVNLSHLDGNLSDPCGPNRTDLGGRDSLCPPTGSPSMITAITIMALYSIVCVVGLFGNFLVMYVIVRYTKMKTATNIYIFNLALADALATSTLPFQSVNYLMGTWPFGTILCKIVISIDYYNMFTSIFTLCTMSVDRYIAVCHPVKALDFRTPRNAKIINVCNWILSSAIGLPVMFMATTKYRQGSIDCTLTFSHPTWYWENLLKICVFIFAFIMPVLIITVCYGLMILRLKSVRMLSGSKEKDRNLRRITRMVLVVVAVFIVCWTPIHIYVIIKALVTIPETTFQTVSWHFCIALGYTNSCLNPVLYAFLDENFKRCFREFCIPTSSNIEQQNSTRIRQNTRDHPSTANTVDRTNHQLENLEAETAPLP

Turning to `CN(C)C(c1ccccc1)C1CCC(NC(=O)c2ccc(Cl)c(Cl)c2)CC1` (stereo not drawn) [compound 189, 3,4-dichloro-N-[4-(dimethylamino-phenyl-methyl)-cyclohexyl]-benzamide], the inhibition at 1 µM is 99% and the Ki was found to be 11 nM.
On to `CN(C)C(c1ccccc1)C1CCC(CNC(=O)c2ccc(Cl)cc2Cl)CC1` (stereo not drawn) [compound 361, 2,4-dichloro-N-[4-(dimethylamino-phenyl-methyl)-cyclohexylmethyl]-benzamide], for which the inhibition at 1 µM is 85% and the Ki is 42 nM.
On to `CN(C)C(c1cccc(F)c1)C1CCC(CNC(=O)CC(C)(C)C)CC1` (stereo not drawn) [compound 295, N-{4-[dimethylamino-(3-fluoro-phenyl)-methyl]-cyclohexylmethyl}-3,3-dimethyl-butyramide], for which the inhibition at 1 µM is 101% and the Ki was 7.3 nM.
On the same counts, the results for `CN(C)C(c1ccccc1)C1CCC(CCNC(=O)c2ccc(C#N)cc2)CC1` (stereo not drawn) [compound 421, 4-cyano-N-{2-[4-(dimethylamino-phenyl-methyl)-cyclohexyl]-ethyl}-benzamide] are 80% and 91 nM.
Taken in the same sequence, the figures for `Cc1oc(-c2ccccc2)cc1C(=O)NCC1CCC(C(c2ccc(Cl)cc2)N(C)C)CC1` (stereo not drawn) [compound 330, 2-methyl-5-phenyl-furan-3-carboxylic acid {4-[(4-chloro-phenyl)-dimethylamino-methyl]-cyclohexylmethyl}-amide] were 94% and 39 nM.
Take `CN(C)C(c1cccc(F)c1)C1CCC(CCNC(=O)c2cc(F)c(Cl)cc2Cl)CC1` (single isomer, unassigned) [compound 439, 2,4-dichloro-N-(2-{4-[dimethylamino-(3-fluoro-phenyl)-methyl]-cyclohexyl}-ethyl)-5-fluoro-benzamide]: the “μ-Opioid receptor, % inhibition [1 μM]” value was determined as 85% and the Ki came to 52 nM.
On the same counts, the results for `CN(C)C(c1ccc(Cl)cc1)C1CCC(CNC(=O)c2csc3ccccc23)CC1` (single isomer, unassigned) [compound 372, benzo[b]thiophene-3-carboxylic acid {4-[(4-chloro-phenyl)-dimethylamino-methyl]-cyclohexylmethyl}-amide] are 84% and 33 nM.
For the molecule `CN(C)C(c1ccc(F)cc1)C1CCC(CNC(=O)c2csc3ccccc23)CC1` (stereo not drawn) [compound 344, benzo[b]thiophene-3-carboxylic acid {4-[dimethylamino-(4-fluoro-phenyl)-methyl]-cyclohexylmethyl}-amide], the inhibition at 1 µM came out at 90% and the Ki is 13 nM.
As for `Cc1oc(-c2ccccc2)cc1C(=O)NCC1CCC(C(c2ccccc2)N(C)C)CC1` (stereo not drawn) [compound 345, 2-methyl-5-phenyl-furan-3-carboxylic acid [4-(dimethylamino-phenyl-methyl)-cyclohexylmethyl]-amide], the inhibition at 1 µM was 90% and the Ki is 13 nM.
For `CN(C)C(c1ccccc1)C1CCC(NC(=O)CC(C)(C)C)CC1` (single isomer, unassigned) [compound 246, N-[4-(dimethylamino-phenyl-methyl)-cyclohexyl]-3,3-dimethyl-butyramide], the “μ-Opioid receptor, % inhibition [1 μM]” value is reported as 82% and the Ki came out at 39 nM.
Regarding `CN(C)C(c1cccc(F)c1)C1CCC(CNC(=O)Cc2cccs2)CC1` (stereo not drawn) [compound 343, N-{4-[dimethylamino-(3-fluoro-phenyl)-methyl]-cyclohexylmethyl}-2-thiophen-2-yl-acetamide], the inhibition at 1 µM was 90%.
Turning to `Cc1oc(-c2ccccc2)cc1C(=O)NCCC1CCC(C(c2ccccc2)N(C)C)CC1` (stereo not drawn) [compound 467, 2-methyl-5-phenyl-furan-3-carboxylic acid {2-[4-(dimethylamino-phenyl-methyl)-cyclohexyl]-ethyl}-amide], the inhibition at 1 µM came out at 82% and the Ki was determined as 62 nM.
Taken in the same sequence, the figures for `CN(C)C(c1cccs1)C1CCC(CCNC(=O)c2c(Cl)cccc2Cl)CC1` (stereo not drawn) [compound 431, 2,6-dichloro-N-{2-[4-(dimethylamino-thiophen-2-yl-methyl)-cyclohexyl]-ethyl}-benzamide] were 93% and 26 nM.
As to `CN(C)C(c1ccccc1)C1CCC(CCNC(=O)c2cccnc2Sc2ccc(Cl)cc2)CC1` (single isomer, unassigned) [compound 471, 2-(4-chloro-phenylsulfanyl)-N-{2-[4-(dimethylamino-phenyl-methyl)-cyclohexyl]-ethyl}-nicotinamide], the “μ-Opioid receptor, % inhibition [1 μM]” value is on record as 82% and the Ki turned out to be 87 nM.
On to `Cc1ccccc1C(=O)NCCC1CCC(C(c2ccc(Cl)cc2)N(C)C)CC1` (stereo not drawn) [compound 419, N-(2-{4-[(4-chloro-phenyl)-dimethylamino-methyl]-cyclohexyl}-ethyl)-2-methyl-benzamide], for which the inhibition at 1 µM was 86% and the Ki came out at 32 nM.
As for `CN(C)C(c1cccc(F)c1)C1CCC(NC(=O)c2ccc(Cl)c(Cl)c2)CC1` (stereo not drawn) [compound 209, 3,4-dichloro-N-{4-[dimethylamino-(3-fluoro-phenyl)-methyl]-cyclohexyl}-benzamide], the inhibition at 1 µM was found to be 92% and the Ki turned out to be 47 nM.
In the case of `Cc1cc(C2(O)CCC(C(c3ccc(Cl)cc3)N(C)C)CC2)ccc1F` (stereo not drawn) [compound 160, 4-[(4-chloro-phenyl)-dimethylamino-methyl]-1-(4-fluoro-3-methyl-phenyl)-cyclohexanol], under “1 μM test substance, inhibition of specific [3H]-naloxone binding”, the inhibition at 1 µM is 67%.
On to `CN(C)C(c1cccs1)C1CCC(CNC(=O)C(c2ccccc2)c2ccccc2)CC1` (stereo not drawn) [compound 297, N-[4-(dimethylamino-thiophen-2-yl-methyl)-cyclohexylmethyl]-2,2-diphenyl-acetamide], for which the inhibition at 1 µM turned out to be 100% and the inhibition constant (Ki) was determined as 4 nM.
`CN(C)C(c1cccc(F)c1)C1CCC(CNC(=O)c2cccs2)CC1` (single isomer, unassigned) [compound 340, thiophene-2-carboxylic acid {4-[dimethylamino-(3-fluoro-phenyl)-methyl]-cyclohexylmethyl}-amide]: the “μ-Opioid receptor, % inhibition [1 μM]” value is listed as 91% and the Ki amounted to 55 nM.
As to `CC(C)S(=O)(=O)c1csc(C(=O)NC2CCC(C(c3cccs3)N(C)C)CC2)c1Cl` (stereo not drawn) [compound 221, 3-chloro-4-(propan-2-sulfonyl)-thiophene-2-carboxylic acid [4-(dimethylamino-thiophen-2-yl-methyl)-cyclohexyl]-amide], the inhibition at 1 µM was 88% and the inhibitory constant (Ki) was 29 nM.
On the same counts, the results for `CN(C)C(c1ccc(F)cc1)C1CCC(NC(=O)c2ccc(F)c(Cl)c2)CC1` (stereo not drawn) [compound 280, 3-chloro-N-{4-[dimethylamino-(4-fluoro-phenyl)-methyl]-cyclohexyl}-4-fluoro-benzamide] are 73% and 310 nM.
On the same counts, the results for `Cc1cc(C(=O)NC2CCC(C(c3cccc(F)c3)N(C)C)CC2)c(C)o1` (stereo not drawn) [compound 265, 2,5-dimethyl-furan-3-carboxylic acid {4-[dimethylamino-(3-fluoro-phenyl)-methyl]-cyclohexyl}-amide] are 78% and 140 nM.
`CN(C)C(c1ccccc1)C1CCC(CNC(=O)c2cccnc2Oc2ccc(Cl)cc2)CC1` (single isomer, unassigned) [compound 383, 2-(4-chloro-phenoxy)-N-[4-(dimethylamino-phenyl-methyl)-cyclohexylmethyl]-nicotinamide]: the “μ-Opioid receptor, % inhibition [1 μM]” value is 83% and the Ki is 86 nM.
For `CCC(C(=O)NC1CCC(C(c2ccccc2)N(C)C)CC1)c1ccccc1` (single isomer, unassigned) [compound 234, N-[4-(dimethylamino-phenyl-methyl)-cyclohexyl]-2-phenyl-butyramide], the inhibition at 1 µM is 84% and the inhibition constant (Ki) was 46 nM.
On the same counts, the results for `CN(C)C(c1ccccc1)C1CCC(CCNC(=O)COCc2ccccc2)CC1` (stereo not drawn) [compound 450, 2-benzyloxy-N-{2-[4-(dimethylamino-phenyl-methyl)-cyclohexyl]-ethyl}-acetamide] are 89% and 81 nM.
On the same counts, the results for `Cc1ccc(Oc2ncccc2C(=O)NCC2CCC(C(c3cccs3)N(C)C)CC2)cc1` (single isomer, unassigned) [compound 389, N-[4-(dimethylamino-thiophen-2-yl-methyl)-cyclohexylmethyl]-2-p-tolyloxy-nicotinamide] are 81% and 58 nM.
On the same counts, the results for `CN(C)C(c1ccccc1)C1CCC(CCNC(=O)c2cc(F)cc(F)c2)CC1` (stereo not drawn) [compound 433, N-{2-[4-(dimethylamino-phenyl-methyl)-cyclohexyl]-ethyl}-3,5-difluoro-benzamide] are 89% and 3.8 nM.
`CN(C)C(c1ccccc1)C1CCC(CNC(=O)c2csc(-c3ccccc3)n2)CC1` (stereo not drawn) [compound 335, 2-phenyl-thiazole-4-carboxylic acid [4-(dimethylamino-phenyl-methyl)-cyclohexylmethyl]-amide]: the inhibition at 1 µM came out at 92% and the Ki was found to be 33 nM.
On the same counts, the results for `COc1cccc(CC(=O)NCC2CCC(C(c3ccccc3)N(C)C)CC2)c1` (stereo not drawn) [compound 349, N-[4-(dimethylamino-phenyl-methyl)-cyclohexylmethyl]-2-(3-methoxy-phenyl)-acetamide] are 89% and 50 nM.
On the same counts, the results for `Cc1ccc(C(=O)NC2CCC(C(c3ccccc3)N(C)C)CC2)cc1` (stereo not drawn) [compound 242, N-[4-(dimethylamino-phenyl-methyl)-cyclohexyl]-4-methyl-benzamide] are 82% and 46 nM.
On the same counts, the results for `CC(Oc1ccccc1)C(=O)NCC1CCC(C(c2cccs2)N(C)C)CC1` (stereo not drawn) [compound 304, N-[4-(dimethylamino-thiophen-2-yl-methyl)-cyclohexylmethyl]-2-phenoxy-propionamide] are 99% and 15 nM.

The record behind these values is US8058475B2, “Substituted cyclohexylmethyl compounds” (Gruenenthal GmbH, priority 2005, dated 2011).
